Data: PMC6411960, “Discovery of Novel Androgen Receptor Ligands by Structure-based Virtual Screening and Bioassays” (Genomics, Proteomics & Bioinformatics, 2019)
Where two headings read alike, the source gives them in different places.

Tests used:
[1] = system: AR transcriptional activity; assay: LNCaP-ARR2PB-eGFP transcriptional activity assay, agonist mode (without DHT); format: cell-based
Method: 1 nM DHT was added for background fluorescence. In addition, cells receiving equal volume of DMSO solution with (dark gray bar) or without (light gray bar) DHT served as controls too. […] C. […] The test concentrations range from 0.001 nM to 10 µM. DHT served as the positive control. Assays were performed in triplicate. Multiple group comparisons were analyzed with 1-way ANOVA (**, P < 0.05 were considered statistically significant).
The agonistic effects of the screened compounds were analyzed by stimulating the cell growth of LNCaP-ARR2PB-eGFP without prior addition of DHT. Cells were incubated with various concentrations of HBP1-3, HBP1-17, HBP1-38, and HBP1-51, respectively, ranging from 1 × 10^−3 nM to 1 × 10^4 nM (Figure 4C).
A cell line of LNCaP that stably expresses eGFP under the regulation of an androgen response element was generated to investigate the agonist/antagonist activity of the selected compounds as previously described, [34]. […] For lentiviral infection, LNCaP cells were plated and proliferated to a confluence of 60% before adding 5 ml of the collected lentivirus. Medium was refreshed 16 h later and cells were incubated for another two days. GFP expression in the transfected cell was examined with a fluorescent microscope. Subsequently, the infected cells were cultured in complete medium containing 1 μg/ml puromycin. This procedure was repeated for three cycles in the next subculture process to adequately eliminate the non-transfected clones. Cells surviving the screening process were AR-regulated eGFP-expressing LNCaP cells (LNCaP-ARR2PB-eGFP) and were cultured for subsequent antagonist/agonist assay.

AR-LBD = target: T1, AR-LBD (Homo sapiens, UniProt P10275); assay: PolarScreen AR competitor assay (fluorescence polarization); format: binding; conditions: competition with Flu-AR ligand; for EC50: gradient concentrations 0.1–100 µM, read-out: Binding EC50; for IC50: 0.1–100 µM, read-out: IC50, binding to AR-LBD
T1 sequence (P10275 669-900 limits assumed): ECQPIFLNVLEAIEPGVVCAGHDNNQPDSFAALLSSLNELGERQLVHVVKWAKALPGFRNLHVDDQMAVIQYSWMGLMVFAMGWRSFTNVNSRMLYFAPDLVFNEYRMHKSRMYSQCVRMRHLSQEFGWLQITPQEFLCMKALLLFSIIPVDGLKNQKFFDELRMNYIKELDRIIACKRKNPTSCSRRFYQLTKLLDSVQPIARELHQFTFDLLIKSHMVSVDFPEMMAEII

LNCaP cells = assay: MTT cell proliferation assay, LNCaP; format: cell-based; conditions: for inhibition at 10 µM: Homo sapiens, LNCaP cell line, compound at 10 μM; for decrease in cell viability / change in cell viability: 30 µM, versus cells not treated; for change in cell viability: P = 0.0001; for effect on growth of LNCaP cells: various concentrations
Method: 3-(4,5-Dimethythiazol-2-yl)-2,5-diphenyl-2-H-tetrazolium bromid (MTT) colorimetric assay was utilized to evaluate cell proliferation, which can reflect the bioactivity and cytotoxicity of test compounds at cellular level. […] After incubation at 37 °C for 24 h, cells were treated with serial dilutions of indicated compounds (and 1 nM DHT for LNCaP culture) and incubated for another 3 days. Afterward, 10 μl of 5 mg/ml MTT solution was added into each well and further incubated for another 4 h. Then, 100 μl of triplex 10% SDS-0.1% HCl-PBS solutions were added to dissolve the formazan deposited on the bottom of the plates and the plates were then further retained in incubator overnight. The absorbance at 570 nm was measured with the reference wavelength at 650 nm with a spectrophotometer (Bioteck Eon, Winooski, VT).

C4-2 cells = assay: MTT cell proliferation assay, C4-2; format: cell-based; conditions: for reduction of cell viability: C4-2, 30 µM, versus cells without treatment
Source text: We further tested C4-2, an androgen-independent AR^+ PCa cell line, which is more malignant than LNCaP. […] Given inhibitory effect was only observed at higher concentrations, it remains to be addressed whether the inhibition is attributed to AR blocking or the inherent toxicities of the tested compounds. We thus tested these compounds on DU145, an AR^− PCa cell line.
3-(4,5-Dimethythiazol-2-yl)-2,5-diphenyl-2-H-tetrazolium bromid (MTT) colorimetric assay was utilized to evaluate cell proliferation, which can reflect the bioactivity and cytotoxicity of test compounds at cellular level. PCa cells were cultured in 1640 RPMI media containing 5% charcoal-stripped serum (CSS) at a density of 5000 cells per well for LNCaP, 1000 cells per well for C4-2, and 2000 cells per well for DU145 in 96-well plates. After incubation at 37 °C for 24 h, cells were treated with serial dilutions of indicated compounds (and 1 nM DHT for LNCaP culture) and incubated for another 3 days. Afterward, 10 μl of 5 mg/ml MTT solution was added into each well and further incubated for another 4 h. Then, 100 μl of triplex 10% SDS-0.1% HCl-PBS solutions were added to dissolve the formazan deposited on the bottom of the plates and the plates were then further retained in incubator overnight. The absorbance at 570 nm was measured with the reference wavelength at 650 nm with a spectrophotometer (Bioteck Eon, Winooski, VT).

[2] = system: AR transcriptional activity; assay: LNCaP-ARR2PB-eGFP transcriptional activity assay, antagonist mode (with DHT); format: cell-based; conditions: for effect on eGFP expression: 10 µM compound in the presence of 1 nM DHT, versus DHT control; for EC50: read-out: Antagonistic EC50
[3] = without DHT, 1 × 10^−3 nM to 1 × 10^4 nM
[4] = LNCaP-ARR2PB-eGFP, in the presence of DHT

SMILES | EC50 (AR-LBD) | inhibition at 10 µM (LNCaP cells) | reduction of cell viability (C4-2 cells) | effect on eGFP expression [2] | agonistic effect on eGFP expression [1, 3] | effect on growth of LNCaP cells (LNCaP cells; LNCaP) | also measured
C[C@]12CCC(=O)C[C@@H]1CC[C@@H]1[C@@H]2CC[C@]2(C)[C@@H](O)CC[C@@H]12 [DHT, dihydrotestosterone, reference compound] | – | – | – | – | – | – | agonistic effect on eGFP expression [1]: upregulated eGFP expression in a dose-dependent manner
COc1ccc(CC2(CCC(=O)NCCn3ccc4ccccc43)CCC(=O)N2)c2ccccc12 (centres unmarked) [HBP1-38] | > 30 µM | 18.6 ± 4.7% | ~40% | promoted eGFP expression | did not cause notable change | – | inhibitory effect on LNCaP growth (LNCaP cells; LNCaP, 10 µM): inhibitory effect comparable to Bic; decrease in cell viability (LNCaP cells; LNCaP): ≥ 40%
Cc1ccccc1NCC(=O)N/N=C/c1ccc(-c2ccc(Cl)c(Cl)c2)o1 [HBP1-58] | 4.92 µM | 2.2 ± 0.8% | – | significantly reduced eGFP expression | – | – | IC50 (AR-LBD): 4.92 µM; change in cell viability (LNCaP cells; LNCaP): significant decrease in cell viability; EC50 [2, 4]: 3.25 ± 0.43 µM; IC50 ([2]; LNCaP-ARR2PB-eGFP, with DHT, read-out: IC50, antagonistic effect on AR transcriptional activity): 3.25 ± 0.43 µM
O=C(CC1C(=O)NCCN1Cc1cccc2ccccc12)NCCn1ccc2ccccc21 (centres unmarked) [HBP1-17] | > 30 µM | 7.8 ± 4.1% | 10% | did not show obvious effect on eGFP expression | did not cause notable change | – | decrease in cell viability (LNCaP cells; LNCaP): ≥ 20%
Cc1cc(O)nc2ccc(S(=O)(=O)Nc3ccc(O)cc3)cc12 [HBP1-51] | 3.96 µM | – | – | promoted eGFP expression | dose-dependent upregulation of GFP expression | did not show apparent inhibition tendency | IC50 (AR-LBD): 3.96 µM; maximum increase of cell viability (C4-2 cells; C4-2, all tested concentrations, versus untreated cells, not significant (P = 0.14)): below 20%; Antagonistic EC50 [2, 4]: Agonist
Nc1ccc2c(c1)C(=O)N(c1cccc3ccccc13)C2=O [HBP1-3] | > 30 µM | 7.8 ± 4.4% | 12% | did not show obvious effect on eGFP expression | did not cause notable change | – | change in cell viability (LNCaP cells; LNCaP): significant decrease in cell viability
CNC(=O)c1ccc(N2C(=S)N(c3ccc(C#N)c(C(F)(F)F)c3)C(=O)C2(C)C)cc1F [Enz, enzalutamide, reference compound] | – | – | – | – | – | reduced the growth of LNCaP cells in a dose-dependent manner | –
CC(O)(CS(=O)(=O)c1ccc(F)cc1)C(=O)Nc1ccc(C#N)c(C(F)(F)F)c1 (centres unmarked) [Bic, bicalutamide, reference compound] | – | 16.5 ± 1% | – | – | – | reduced the growth of LNCaP cells in a dose-dependent manner | EC50 [2]: 0.69 ± 0.085 µM
